Data from patent US7977332B2, “Insecticidal N-(heteroarylalkyl)alkanediamine derivatives” (FMC Corporation, priority 2003, dated 2011).

Test system: tobacco budworm (Heliothis virescens [Fabricius])
Assay: surface-treated diet test against tobacco budworm
Format: in vivo
Details: 0.25 millimolar on the surface of the diet, second instar larvae, five-day exposure; for Percent Growth Inhibition: insect weight relative to untreated controls
Experimental: Candidate insecticides were evaluated for activity against the tobacco budworm (Heliothis virescens [Fabricius]) in a surface-treated diet test.
In this test one mL of molten (65-70° C.) wheat germ-based artificial diet was pipetted into each well of a four by six (24 well) multi-well plate (ID# 430345-15.5 mm dia.×17.6 mm deep; Corning Costar Corp., One Alewife Center, Cambridge, Mass. 02140). The diet was allowed to cool to ambient temperature before treatment with candidate insecticide.
For a determination of insecticidal activity, solutions of the candidate insecticides were prepared for testing using a Packard 204DT Multiprobe® Robotic System (Packard Instrument Company, 800 Research Parkway, Meriden, Conn. 06450), in which the robot first diluted a standard 50 millimolar DMSO solution of candidate insecticide with a 1:1 water/acetone solution (V/V) in a ratio of 1:7 stock solution to water/acetone. The robot subsequently pipetted 40 microliters of the so-prepared solution onto the surface of the diet in each of three wells in the 24 multi-well plate. The process was repeated with solutions of seven other candidate insecticides. Once treated, the contents of the multi-well plate were allowed to dry, leaving 0.25 millimoles of candidate insecticide on the surface of the diet, or a concentration of 0.25 millimolar. Appropriate untreated controls containing only DMSO on the diet surface were also included in this test.
For evaluations of the insecticidal activity of a candidate insecticide at varying rates of application, the test was established as described above using sub-multiples of the standard 50 millimolar DMSO solution of candidate insecticide. For example, the standard 50 millimolar solution was diluted by the robot with DMSO to give 5, 0.5, 0.05, 0.005, 0.0005 millimolar, or more dilute solutions of the candidate insecticide. In these evaluations there were six replicates of each rate of application placed on the surface of the diet in the 24 multi-well plate, for a total of four rates of application of candidate insecticide in each plate.
In each well of the test plate was placed one second instar tobacco budworm larvea, each weighing approximately five milligrams. After the larvae were placed in each well, the plate was sealed with clear polyfilm adhesive tape. The tape over each well was perforated to ensure an adequate air supply. The plates were then held in a growth chamber at 25° C. and 60% relative humidity for five days (light 14 hours/day).
After the five-day exposure period insecticidal activity for each rate of application of candidate insecticide was assessed as percent inhibition of insect weight relative to the weight of insects from untreated controls, and percent mortality when compared to the total number of insects infested.
The test compounds of formula I are identified by numbers that correspond to those in Table 1.

SMILES | Percent Growth Inhibition | Percent Mortality
O=[N+]([O-])C=C(NCCN(Cc1ccc(Cl)nc1)Cc1ccc(Cl)nc1)SCc1ccc(C(F)(F)F)cc1 [Compound 324] | 100% | –
COc1ccccc1CSC(=C[N+](=O)[O-])NCCN(Cc1ccc(Cl)nc1)Cc1ccc(Cl)nc1 [Compound 325] | 100% | –
COc1cccc(CSC(=C[N+](=O)[O-])NCCN(Cc2ccc(Cl)nc2)Cc2ccc(Cl)nc2)c1 [Compound 326] | 100% | –
COc1ccc(CSC(=C[N+](=O)[O-])NCCN(Cc2ccc(Cl)nc2)Cc2ccc(Cl)nc2)cc1 [Compound 327] | 100% | –
C=CCN(CCNC(=C[N+](=O)[O-])SCc1ccc(C(F)(F)F)cc1)Cc1ccc(Cl)nc1 [Compound 328] | 98% | 83%
C#CCN(CCN1COCNC1=N[N+](=O)[O-])Cc1ccc(Cl)nc1 [Compound 558] | 85% | –
